The test system of the series is dorsal shaved skin. Description: Rat seven-day intracutaneous skin thinning test (skin thinning and systemic effects). The format is in vivo, rat (male, strain CFHB). The following applies: for Final body weight / Combined adrenal weight / Thymus weight / Spleen weight / Treated skin weight: mean; for Final body weight: 8 mg intracutaneous (16×0.5 mg), autopsy seven days later, initial body weight 200±3 g, control 249; for Combined adrenal weight / Thymus weight / Spleen weight / Treated skin weight: 8 mg intracutaneous, seven days; for Combined adrenal weight: control 41.5; for Thymus weight: control 612; for Spleen weight: control 788; for Treated skin weight: 4×4 cm area of treated skin, control 1.630; for systemic effects: conclusion in words. The protocol: Male rats strain CFHB, initial body weight 200±3 g, were used in the experiment and divided in seven groups each containing 10 animals, six groups being used for testing the compounds a-f and the seventh group serving as controls.
Each anaesthetised animal in each group received 8 mg of the respective compound injected as 16×0.5 mg suspended in 0.05 ml of suspension fluid into a 4×4 cm area of dorsal shaved skin. […]
At autopsy seven days later the spleen, adrenals, thymus and body weight were recorded in addition to the 4×4 cm area of treated skin. Table B summarises the means of the results.

Structures are written as SMILES.

On to `CCCC(=O)O[C@]1(C(=O)CC)CC[C@H]2[C@@H]3CCC4=CC(=O)CC[C@]4(C)[C@H]3[C@@H](O)C[C@@]21C` [b, 11β,17dihydroxy-21-methyl-Δ^4pregnene-3,20-dione 17n-butyrate], for which the Final body weight is recorded as 249 g, the Combined adrenal weight is 36.3 mg, the Thymus weight turned out to be 533 mg and the Spleen weight is 727 mg. For the same compound, the Treated skin weight was found to be 1.660 g.
As to `CCCCC(=O)O[C@]1(C(=O)CO)[C@@H](C)C[C@H]2[C@@H]3CCC4=CC(=O)C=C[C@]4(C)[C@@]3(F)[C@@H](O)C[C@@]21C` [f, betamethasone 17valerate], the systemic effects entry was “have systemic effects”, the Final body weight is 229 g, the Combined adrenal weight is reported as 21.5 mg and the Thymus weight was determined as 96 mg. The compound also returned a Spleen weight of 445 mg and a Treated skin weight of 1.445 g.
In the case of `CCCC(=O)O[C@]1(C(=O)CO)CC[C@H]2[C@@H]3CCC4=CC(=O)CC[C@]4(C)[C@H]3[C@@H](O)C[C@@]21C` [g, hydrocortisone 17n-butyrate], the systemic effects entry is “have systemic effects”, the Final body weight is recorded as 227 g, the Combined adrenal weight is listed as 34.7 mg and the Thymus weight worked out at 96 mg. In addition, the Spleen weight was found to be 503 mg and the Treated skin weight turned out to be 1.410 g.
With `CC1(C)O[C@@H]2C[C@H]3[C@@H]4CCC5=CC(=O)C=C[C@]5(C)[C@@]4(F)[C@@H](O)C[C@]3(C)[C@]2(C(=O)CO)O1` [h, triamcinolone acetonide], the systemic effects result is reported as “have systemic effects”, the Final body weight worked out at 142 g, the Combined adrenal weight was 17.4 mg and the Thymus weight is 65 mg. In addition, the Spleen weight is on record as 150 mg and the Treated skin weight turned out to be 1.107 g.

The record behind these values is US4260605A, “Novel alkylated pregnanes, processes for their preparation and pharmaceutical compositions containing same” (Akzo N.V., priority 1979, dated 1981).
